Laboratory results: patent US7355001B2, “Organic anion transport protein TCH229” (Takeda Pharmaceutical Company Limited, priority 2002, dated 2008)

Legend:
human TCH229 [1] = experiment: Expression of human TCH229 gene in RPTEC stimulated with stimulants (TaqMan PCR); format: cell-based; details: stimulant 10 ng/ml, 0.5-8 hours after addition
Description: (§1) (2) Preparation of cDNA from Normal Human Cells Stimulated with Various Stimulants a) Renal proximal tubular epithelial cell (RPTEC) and human renal cortical epithelial cell (HRCE) (both available from Cambrex BioScience Walkersvill) were plated on a 24-well collagen-coated plate in 1×10^5 cells/well and then cultured overnight, and after the medium was replaced by […] (T3)-free Bullet Kit REGM (BIO WHITTAKER), the cells were cultured for additional 30 minutes. b) As stimulants, TGF-β1 (Wako Pure Chemical Industries, Ltd.), TNF-α (Genzyme), IL-1β (Genzyme), IL-6 (Genzyme) and PMA (Wako Pure Chemical Industries, Ltd.) were used. A solution was prepared by diluting each of these 5 stimulants at the final concentration of 10 ng/ml with T3-free Bullet Kit REGM (BIO WHITTAKER). c) Just after the culture supernatants of the RPTEC and HRCE in the above item a) were removed, the solution prepared in the above item b) was added in a volume of 500 μl/well, and the cells were cultured. As the control, a mixture of the 5 stimulants dissolved in a solvent was diluted at the same ratio as the stimulants with T3-free Bullet Kit REGM (BIO WHITTAKER) to prepare a solution, and 500 μl of the solution was added to each well of RPTEC and HRCE, and the cells were cultured. d) 0.5, 1, 2, 4, 6 and 8 hours after addition of the stimulants, the cells were recovered respectively, and total RNA was prepared by using RNeasy Mini Kit (Quiagen). The total RNA thus prepared was subjected to reverse transcription reaction using TaqMan Reverse Transcription Reagents (manufactured by Applied Biosystems, Inc.) to prepare the cDNA. (3) Analysis of Expression of Human TCH229 Gene in Commercially Available Normal Human Cells
(§2) The expression level (copy number) of human TCH229 in the cDNAs prepared from the normal human cells and the PRTEC and HRCE stimulated with the stimulants was measured by TaqMan PCR with the 2 primer DNAs used in Example 4 (that is, primer TMF (SEQ ID NO: 19) and primer TMR (SEQ ID NO: 20)) and TaqMan probe P1 (SEQ ID NO: 21). For the cDNAs prepared respectively from the normal human cells and the PRTEC and HRCE stimulated with the stimulants, the expression level (copy number) of ribosomal RNA (18S) was assayed by using Eukaryotic 18S rRNA Pre-Developed TaqMan Assay Reagents (manufactured by Applied Biosystems, Inc.), and the expression level (copy number) of human glyceraldehyde-3-phosphate dehydrogenase (GAPDH) was also assayed by using human GAPD (GAPDH) (manufactured by Applied Biosystems, Inc.). […]

human TCH229 [2] = experiment: Expression of human TCH229 gene in HRCE stimulated with stimulants (TaqMan PCR); format: cell-based; details: stimulant 10 ng/ml, 0.5-8 hours after addition
Description: as §1, §2

| Molecule | fluctuation of expression of human TCH229 (mRNA, relative to human GAPDH) as compared with the control (human TCH229 [1]) | fluctuation of expression of human TCH229 (mRNA, relative to human GAPDH) as compared with the control (human TCH229 [2]) |
| --- | --- | --- |
| CCCCCCCCCCCCCC(=O)O[C@@H]1[C@@H](C)[C@@]2(O)[C@@H](C=C(CO)C[C@]3(O)C(=O)C(C)=C[C@@H]23)[C@@H]2C(C)(C)[C@]12OC(C)=O [PMA] | decreased depending on culture time | decreased depending on culture time |
| IL-1β: stimulant, IL-1β (Genzyme) | decreased depending on culture time | decreased depending on culture time |
| TGF-β1: stimulant, TGF-β1 (Wako Pure Chemical Industries, Ltd.) | decreased depending on culture time | decreased depending on culture time |
| TNF-α | decreased depending on culture time | decreased depending on culture time |
